# In patent US20120107601A1, “SYSTEMS AND METHODS OF TEMPLATING USING PARTICLES SUCH AS COLLOIDAL PARTICLES” (President and Fellows of Harvard College, priority 2009, published 2012):
# Procedure: To ensure that the introduction of the hydrophobic compounds into the template structure would not lead to rearrangement of the particles in the 3D array, some of the templates were sintered prior to the introduction step. Sintering temperatures between 700 and 1200° C. were used to evaluate the conditions needed to form strong interparticle necks without distorting the initial packed structure. Sintering was accomplished under a O2 gas flow of 0.7 L/min (Thermo Scientific Lindberg Blue M Three-Zone Tube Furnace, Cole-Parmer, Vernon Hills, Ill., USA) applying a dwell time period of 2 hours. Introduction of the hydrophobic compounds into the interstices of the packed array of particles was accomplished by first placing the template on a hot plate at a predetermined temperature and afterwards depositing the powdery hydrophobic compound on the top of the heated template. The temperature of the hot plate was adjusted to enable melting of the hydrophobic compound on the template surface. Once in liquid form, the compound was sucked into the interstices of the template structure by capillary forces. […] After fluid introduction, the templates were removed from the hot plate and cooled in air at ambient temperature. The fluid-introduced templates were finally fractured to enable evaluation of the fluid-introduction efficiency in an electron microscope.
# Drug-template composites were prepared in the following manner. Templates were prepared from an aqueous colloidal dispersion using the slip-casting method described previously. After slip-casting, the templates were dried in an oven at 110° C. for 12 hours. The templates were then placed on a hotplate at a temperature approximately 5° C. to 10° C. above the melting point of the drug. A small amount of the raw crystalline drug was placed on the surface of the hot template. As the drug was melted, it was drawn into the template by capillary action. These steps were repeated until the template was filled completely. […] The drug-template composites were prepared for dissolution by mild grinding of the sample with a hand-held mortar and pestle.
# The samples were prepared for NMR by the following procedure. Unprocessed, crystalline powders (BASF) were dissolved in deuterated solvents at a concentration of approximately 10 mg/mL and filtered through a 0.2 micrometer PTFE filter to remove any solid impurities before running NMR measurements. Drug-silica composites were ground using a hand-held mortar and pestle, dissolved in deuterated solvents at a (drug) concentration of approximately 10 mg/mL and filtered through a 0.2 micrometer PTFE filter to remove the silica template and any additional solid impurities before running NMR measurements. […] Estradiol was dissolved in deuterated DMSO. […] It is, therefore, to be understood that the foregoing embodiments are presented by way of example only and that, within the scope of the appended claims and equivalents thereto, the invention may be practiced otherwise than as specifically described and claimed. The present invention is directed to each individual feature, system, article, material, kit, and/or method described herein. In addition, any combination of two or more such features, systems, articles, materials, kits, and/or methods, if such features, systems, articles, materials, kits, and/or methods are not mutually inconsistent, is included within the scope of the present invention.
Structure (SMILES),stability upon melting,visible color change upon melting and infiltration into the composites,melting without decomposition (introduction of molten compound into templates)
Clc1ccccc1C(c1ccccc1)(c1ccccc1)n1ccnc1 [chlotrimazole],stable upon melting,no visible color change,–
CC(C)OC(=O)C(C)(C)Oc1ccc(C(=O)c2ccc(Cl)cc2)cc1 [fenofibrate],–,–,can be melted without decomposition
CCC(C)n1ncn(-c2ccc(N3CCN(c4ccc(OCC5COC(Cn6cncn6)(c6ccc(Cl)cc6Cl)O5)cc4)CC3)cc2)c1=O (centres unmarked) [itraconazole],stable upon melting,no visible color change,–
CC(=O)N1CCN(c2ccc(OCC3COC(Cn4ccnc4)(c4ccc(Cl)cc4Cl)O3)cc2)CC1 (centres unmarked) [ketoconazole],stable upon melting,no visible color change,–

# Next, values leading:
stability upon melting,visible color change upon melting and infiltration into the composites,melting without decomposition (introduction of molten compound into templates),Structure (SMILES)
stable upon melting,–,can be melted without decomposition,C(=C\c1ccccc1)/CN1CCN(C(c2ccccc2)c2ccccc2)CC1 [cinnarizine]
stable upon melting,no visible color change,–,C[C@]12CC[C@@H]3c4ccc(O)cc4CC[C@H]3[C@@H]1CC[C@@H]2O [estradiol]
